PubChem BioAssay (NCI)
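All cell lines were grown in 96-well plates and treated with compound for 48 hours. GI50 marks 50% less growth. Definition used: TGI = concentration required for complete inhibition of growth.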

What was measured:
Assay in all cases: NCI anticancer screen, dose series, 48 h
[1] = system: NCI-H460 lung
[2] = system: HS 578T breast
[3] = system: MDA-MB-435
[4] = system: UACC-257 melanoma
[5] = system: SK-MEL-28 melanoma
[6] = system: SF-539 CNS
[7] = system: SK-MEL-2 melanoma
[8] = system: NCI-H23 lung
[9] = system: OVCAR-8 ovarian
[10] = system: SK-MEL-5 melanoma

COc1ccc(/C=C(/c2ccccc2)[N+](=O)[O-])c(OC)c1
GI50 [1]: 1.87 µM | TGI [1]: 3.87 µM | GI50 [2]: 2.2 µM | TGI [2]: 6.65 µM | GI50 [3]: 1450 nM | TGI [3]: 2.97 µM | GI50 [4]: 1.55 µM | TGI [4]: 3.38 µM | GI50 [5]: 1500 nM | TGI [5]: 3.03 µM | GI50 [6]: 1.58 µM | TGI [6]: 2.94 µM | GI50 [7]: 1910 nM | TGI [7]: 5.28 µM | GI50 [8]: 1.93 µM | TGI [8]: 4.76 µM | GI50 [9]: 1660 nM | TGI [9]: 5.14 µM | GI50 [10]: 1790 nM | TGI [10]: 3.26 µM

Cc1ccc(S(=O)(=O)Oc2ccc3c4c(c(=O)oc3c2)CCCCCC4)cc1
GI50 [1]: > 100 µM | TGI [1]: > 100 µM | GI50 [2]: > 100 µM | TGI [2]: > 100 µM | GI50 [3]: > 100000 nM | TGI [3]: > 100 µM | GI50 [4]: 8.7 µM | TGI [4]: > 100 µM | GI50 [5]: > 100000 nM | TGI [5]: > 100 µM | GI50 [6]: > 100 µM | TGI [6]: > 100 µM | GI50 [7]: 75000 nM | TGI [7]: > 100 µM | GI50 [8]: > 100 µM | TGI [8]: > 100 µM | GI50 [9]: > 100000 nM | TGI [9]: > 100 µM | GI50 [10]: 4450 nM | TGI [10]: > 100 µM

COc1c(C(C)=O)c(OCCCCOc2c(C(C)=O)c(OC)c3ccoc3c2OC)c(OC)c2occc12
GI50 [1]: > 24.3 µM | TGI [1]: > 100 µM | GI50 [2]: > 100 µM | TGI [2]: > 100 µM | GI50 [3]: 2140 nM | TGI [3]: > 100 µM | GI50 [5]: 2320 nM | TGI [5]: 7.05 µM | GI50 [6]: > 100 µM | TGI [6]: > 100 µM | GI50 [7]: 2760 nM | TGI [7]: > 100 µM | GI50 [8]: 4.64 µM | TGI [8]: > 100 µM | GI50 [9]: 2270 nM | TGI [9]: 7.85 µM | GI50 [10]: 1520 nM | TGI [10]: 3.4 µM

CCC(=O)N1C/C(=C/c2ccc(Cl)cc2)C(=O)/C(=C/c2ccc(Cl)cc2)C1
GI50 [1]: 1.12 µM | TGI [1]: 3.56 µM | GI50 [2]: 2.06 µM | TGI [2]: 6.05 µM | GI50 [3]: 403 nM | TGI [3]: 1.64 µM | GI50 [4]: 1.64 µM | TGI [4]: 3.24 µM | GI50 [5]: 1710 nM | TGI [5]: 3.33 µM | GI50 [6]: 0.69 µM | TGI [6]: 1.91 µM | GI50 [7]: 2010 nM | TGI [7]: 3.94 µM | GI50 [8]: 1.44 µM | TGI [8]: 3.74 µM | GI50 [9]: 451 nM | TGI [9]: 2.12 µM | GI50 [10]: 1460 nM | TGI [10]: 2.81 µM

CCOc1ccc2c(-c3ccnc(Nc4cc(OC)cc(C(F)(F)F)c4)n3)cnn2n1
GI50 [1]: > 15.7 µM | TGI [1]: > 25 µM | GI50 [2]: > 17.4 µM | TGI [2]: > 25 µM | GI50 [3]: 903 nM | TGI [3]: > 10.5 µM | GI50 [4]: > 25 µM | TGI [4]: > 25 µM | GI50 [5]: > 23000 nM | TGI [5]: > 25 µM | GI50 [6]: 5.96 µM | TGI [6]: > 14.7 µM | GI50 [7]: > 25000 nM | TGI [7]: > 25 µM | GI50 [8]: > 21.9 µM | TGI [8]: > 25 µM | GI50 [9]: > 15400 nM | TGI [9]: > 25 µM | GI50 [10]: > 14800 nM | TGI [10]: > 25 µM

Fc1ccc(-c2ncn(C3CCNCC3)c2-c2ccnc(Oc3ccc4c(c3)OCO4)n2)cc1
GI50 [1]: > 21.7 µM | TGI [1]: > 25 µM | GI50 [2]: > 12.7 µM | TGI [2]: > 25 µM | GI50 [3]: > 19500 nM | TGI [3]: > 25 µM | GI50 [4]: 10.5 µM | TGI [4]: > 25 µM | GI50 [5]: 8340 nM | TGI [5]: > 23.1 µM | GI50 [6]: > 25 µM | TGI [6]: > 25 µM | GI50 [7]: > 25000 nM | TGI [7]: > 25 µM | GI50 [8]: > 25 µM | TGI [8]: > 25 µM | GI50 [9]: > 25000 nM | TGI [9]: > 25 µM | GI50 [10]: 3770 nM | TGI [10]: 8.4 µM
